Source: patent EP0908457B1, “3-(1,2-benzisothiazol- and isoxazol-5-Y1)-2,4(1H,3H)-pyrimidinedione or thione and 3-(1,2-benzisothiazol- and isoxazol-5-y1)-4(3H)-pyrimidinone or thione herbicidal agents” (BASF AKTIENGESELLSCHAFT, priority 1997, dated 1999)

Tests used:
[1] = tested on: Cyperus serotinus, Rottb.; assay: Preemergence weed control under flooded paddy conditions, CYPSE (Flatsedge); type: in vivo; details: preemergence, rated three to four weeks after treatment; for herbicidal effect rating, CYPSE: meaning of each grade not given here
[2] = tested on: Monochoria vaginalis, Presl.; assay: Preemergence weed control under flooded paddy conditions, MOOVA (Monochoria); type: in vivo; details: preemergence, flooded paddy, rated three to four weeks after treatment; for herbicidal effect rating, MOOVA: meaning of each grade not given here
[3] = tested on: Oryza sativa, (L.) Tebonnet; assay: Rice tolerance to post-transplant applications under flooded paddy conditions (Example 187), ORYSAT (Rice, Tebonnet); details: rated three to four weeks after treatment
[4] = tested on: Echinochloa oryzoides (Ard.) Fritsch.; assay: Preemergence weed control under flooded paddy conditions, ECHORC (Watergrass (Calif.)); type: in vivo; details: preemergence, flooded paddy, rated three to four weeks after treatment; for herbicidal effect rating, ECHORC: meaning of each grade not given here
Sagittaria pygmaea, L. = assay: Preemergence weed control under flooded paddy conditions, SAGPY (Arrowhead (Pygmaea)); type: in vivo; details: preemergence, flooded paddy, rated three to four weeks after treatment; for herbicidal effect rating, SAGPY: meaning of each grade not given here
Cyperus iria = assay: Preemergence weed control under flooded paddy conditions, CYPIR (Rice Flatsedge); type: in vivo; details: preemergence, flooded paddy, rated three to four weeks after treatment; for herbicidal effect rating, CYPIR: meaning of each grade not given here

Compound: Cn1c(C(F)(F)F)cc(=O)n(-c2ccc3snc(C=C(Br)Br)c3c2)c1=O [Example 284, 2,4(1H,3H)-Pyrimidinedione, 3-[3-(2,2-dibromovinyl)-1,2-benzisothiazol-5-yl]-1-methyl-6-(trifluoromethyl)-]
- CYPSE herbicidal effect rating ([1]; Rate 0.0320 kg/ha): 0.0
- CYPSE herbicidal effect rating ([1]; Rate 0.0620 kg/ha): 0.0
- CYPSE herbicidal effect rating ([1]; Rate 0.1250 kg/ha): 2.0
- CYPSE herbicidal effect rating ([1]; Rate 0.2500 kg/ha): 9.0
- MOOVA herbicidal effect rating ([2]; Rate 0.0320 kg/ha): 4.0
- MOOVA herbicidal effect rating ([2]; Rate 0.0620 kg/ha): 9.0
- MOOVA herbicidal effect rating ([2]; Rate 0.1250 kg/ha): 9.0
- MOOVA herbicidal effect rating ([2]; Rate 0.2500 kg/ha): 9.0
- ORYSAT herbicidal effect rating ([3]; Rate 0.0320 kg/ha): 0.0
- ORYSAT herbicidal effect rating ([3]; Rate 0.0620 kg/ha): 0.0
- ORYSAT herbicidal effect rating ([3]; Rate 0.1250 kg/ha): 0.0
- ORYSAT herbicidal effect rating ([3]; Rate 0.2500 kg/ha): 0.0
- ECHORC herbicidal effect rating ([4]; Rate 0.0320 kg/ha): 0.0
- ECHORC herbicidal effect rating ([4]; Rate 0.0620 kg/ha): 0.0
- ECHORC herbicidal effect rating ([4]; Rate 0.1250 kg/ha): 0.0
- ECHORC herbicidal effect rating ([4]; Rate 0.2500 kg/ha): 0.0
- SAGPY herbicidal effect rating (Sagittaria pygmaea, L.; Rate 0.0320 kg/ha): 0.0
- SAGPY herbicidal effect rating (Sagittaria pygmaea, L.; Rate 0.0620 kg/ha): 0.0
- SAGPY herbicidal effect rating (Sagittaria pygmaea, L.; Rate 0.1250 kg/ha): 0.0
- SAGPY herbicidal effect rating (Sagittaria pygmaea, L.; Rate 0.2500 kg/ha): 0.0
- CYPIR herbicidal effect rating (Cyperus iria; Rate 0.0320 kg/ha): 4.0
- CYPIR herbicidal effect rating (Cyperus iria; Rate 0.0620 kg/ha): 9.0
- CYPIR herbicidal effect rating (Cyperus iria; Rate 0.1250 kg/ha): 9.0
- CYPIR herbicidal effect rating (Cyperus iria; Rate 0.2500 kg/ha): 9.0

Compound: Cc1ccc(OC(C)C(=O)NS(=O)(=O)C(C)C)c(-c2nsc3ccc(-n4c(=O)cc(C(F)(F)F)n(C)c4=O)cc23)c1 (stereo not drawn) [Example 568, Propionamide, 2-{{2-{5-[3,6-dihydro-3-methyl-2,6-dioxo-4-(trifluoromethyl)-1(2H)-pyrimidinyl]-1,2-benzisothiazol-3-yl}-p-tolyl}oxy}-N-(isopropylsulfonyl)-]
- herbicidal effect rating, CYPSE ([1]; Rate 0.0320 kg/ha): 0.0
- herbicidal effect rating, CYPSE ([1]; Rate 0.0620 kg/ha): 0.0
- herbicidal effect rating, CYPSE ([1]; Rate 0.1250 kg/ha): 0.0
- herbicidal effect rating, CYPSE ([1]; Rate 0.2500 kg/ha): 0.0
- herbicidal effect rating, MOOVA ([2]; Rate 0.0320 kg/ha): 0.0
- herbicidal effect rating, MOOVA ([2]; Rate 0.0620 kg/ha): 9.0
- herbicidal effect rating, MOOVA ([2]; Rate 0.1250 kg/ha): 9.0
- herbicidal effect rating, MOOVA ([2]; Rate 0.2500 kg/ha): 9.0
- herbicidal effect rating ORYSAT ([3]; Rate 0.0320 kg/ha): 0.0
- herbicidal effect rating ORYSAT ([3]; Rate 0.0620 kg/ha): 0.0
- herbicidal effect rating ORYSAT ([3]; Rate 0.1250 kg/ha): 1.0
- herbicidal effect rating ORYSAT ([3]; Rate 0.2500 kg/ha): 3.0
- herbicidal effect rating, ECHORC ([4]; Rate 0.0320 kg/ha): 0.0
- herbicidal effect rating, ECHORC ([4]; Rate 0.0620 kg/ha): 3.0
- herbicidal effect rating, ECHORC ([4]; Rate 0.1250 kg/ha): 5.0
- herbicidal effect rating, ECHORC ([4]; Rate 0.2500 kg/ha): 6.0
- herbicidal effect rating, SAGPY (Sagittaria pygmaea, L.; Rate 0.0320 kg/ha): 0.0
- herbicidal effect rating, SAGPY (Sagittaria pygmaea, L.; Rate 0.0620 kg/ha): 0.0
- herbicidal effect rating, SAGPY (Sagittaria pygmaea, L.; Rate 0.1250 kg/ha): 0.0
- herbicidal effect rating, SAGPY (Sagittaria pygmaea, L.; Rate 0.2500 kg/ha): 0.0
- herbicidal effect rating, CYPIR (Cyperus iria; Rate 0.0320 kg/ha): 0.0
- herbicidal effect rating, CYPIR (Cyperus iria; Rate 0.0620 kg/ha): 0.0
- herbicidal effect rating, CYPIR (Cyperus iria; Rate 0.1250 kg/ha): 5.0
- herbicidal effect rating, CYPIR (Cyperus iria; Rate 0.2500 kg/ha): 7.0
